Measured values: patent US6858644B2, “Paclitaxel solvates” (Bristol-Myers Squibb Co., priority 2001, dated 2005)

What was measured:
[1] = Hygroscopicity and solid-form stability of paclitaxel crystal forms; assay type: physicochemical

| SMILES | water solubility | conversion of crystal form ([1]; Form A: relative humidity greater than about 90% or aqueous suspensions, Form D: relatively high humidity) | hygroscopicity ([1]; normal laboratory conditions (RH approximately 50-60%; 20-30° C.)) |
| --- | --- | --- | --- |
| CC(=O)O[C@H]1C(=O)[C@@]2(C)[C@H]([C@H](OC(=O)c3ccccc3)[C@]3(O)C[C@H](OC(=O)[C@H](O)[C@@H](NC(=O)c4ccccc4)c4ccccc4)C(C)=C1C3(C)C)[C@]1(OC(C)=O)CO[C@@H]1C[C@@H]2O [Form A, Paclitaxel] | highly water insoluble | converts (as a function of time, temperature, agitation, etc.) to a thermodynamically more stable form | substantially non-hygroscopic |
| CC(=O)OC1C(=O)C2(C)C(O)CC3OCC3(OC(C)=O)C2C(OC(=O)c2ccccc2)C2(O)CC(OC(=O)C(O)C(NC(=O)c3ccccc3)c3ccccc3)C(C)=C1C2(C)C.O.O.O (stereo not shown) [Form B] | even less water soluble than Form A | – | – |
